This is an account of results in PubChem BioAssay (NCI).

Common to all, as to experiment: NCI-60 cell line screen, 48 h
In assay [1] the test system is NCI-H460 lung.
Assay [2] deals with SNB-19 CNS.
Assay [3] deals with COLO 205 colon.
Assay [4] concerns SK-OV-3 ovarian.
The subject of assay [5] is MALME-3M melanoma.
Assay [6] relates to MDA-MB-435.
Assay [7] relates to EKVX NSCLC.
Assay [8] concerns HT29 colon.
Assay [9] deals with OVCAR-3 ovarian.
Assay [10] has as its system HL-60(TB) leukemia.

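Values below derive from 48-hour exposures of cells grown in 96-well plates, with endpoints linearly interpolated between the two concentrations bracketing the appropriate inhibition level. The concentration for 50% growth inhibition is given as GI50. TGI marks complete inhibition of growth.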 Where only a bound is given, the exact number is not on record here.

For `Cc1nn(-c2ccc(S(=O)(=O)[O-])cc2)c([O-])c1N=[N+](C)c1ccc(-c2ccc(N=Nc3ccc4c(S(=O)(=O)[O-])cc(S(=O)(=O)[O-])c(N)c4c3[O-])c([O-])c2)cc1[O-].[Cu+2].[Cu+2].[Na+]`, the GI50 in assay [1], in assay [2], in [3], in [4], in assay [5] and in [6] was above 100 µM in each case. For the same molecule, the GI50 in assay [7], in assay [8] and in assay [9] was above 100 µM throughout. Further, the TGI in assay [1], in [2], in assay [3], in [4], in [5] and in assay [6] was above 100 µM throughout. Moreover, the TGI in assay [7], in assay [8] and in assay [9] was above 100 µM throughout.

For the molecule `O=C(Nc1nc2ccccc2s1)OCC(F)(F)F`, the GI50 in assay [1], in assay [2], in assay [3], in assay [4], in assay [5] and in assay [6] was above 100 µM each time. Besides, the GI50 in [8], in assay [9] and in assay [10] was above 100 µM in each case. For the same molecule, the TGI in assay [1], in assay [2], in assay [3], in assay [4], in assay [5] and in assay [6] was above 100 µM in each case. In addition, the TGI in assay [8], in [9] and in assay [10] was above 100 µM throughout.

On to `COC(=O)C1OC(O[C@H]2CCC3(C)C(CCC4(C)C3CC=C3C5CC(C)(C)CCC5(C(=O)O)CC[C@]34C)C2(C)C)C(O)C(OC2OC(CO)C(O)C(O)C2O)C1O` (some centres not stated), for which the GI50 is 11.5 µM in assay [1]; 6.82 µM in assay [2]; 8.64 µM in [3]; 13.3 µM in [6]; 6.59 µM in assay [7]; 12.4 µM in assay [8]. The figures for the GI50 in assay [9] and in [10] were 13.9 µM and 6.92 µM, respectively. The TGI in assay [1] is above 33.3 µM; in assay [2] it was 15.5 µM; in assay [3], 25.3 µM; in assay [6] it was above 33.3 µM; in assay [7] it was 12.9 µM; in assay [8], above 33.3 µM. For the same molecule, the results for the TGI in [9] and in assay [10] were above 33.3 µM and 18.2 µM, respectively.

For the molecule `Oc1ccccc1/C=N/Nc1ccc2ccccc2n1`, the GI50 in [1] is 3.38 µM; in assay [2], 5.39 µM; in assay [3] it was 3.66 µM; in assay [4] it was 9.69 µM; in assay [5], 8.18 µM; in [6], 6.42 µM. Also, the GI50 is 9.46 µM in assay [8], 2.82 µM in assay [9] and 2.44 µM in assay [10]. Besides, the TGI in assay [1] was 20.3 µM; in [2], above 100 µM; in assay [3], above 100 µM; in assay [4] it was above 100 µM; in [5], above 100 µM; in assay [6], above 100 µM. The TGI was above 100 µM in [8], 13.8 µM in assay [9] and above 100 µM in assay [10].

As to `CC(C)(C)OC(=O)n1cc(CNC(=S)Nc2ccccc2)c2ccccc21`, the GI50 is 9.36 µM in [1]; 15.3 µM in [2]; 11.3 µM in [3]; 26.4 µM in assay [4]; 12.2 µM in assay [6]; 4.15 µM in [7]. For the same molecule, the figures for the GI50 in [8], in [9] and in assay [10] were 22.3 µM, 11.7 µM and 11.6 µM, respectively. Moreover, the TGI was 22 µM in [1]; 61.7 µM in assay [2]; 23.4 µM in assay [3]; 90.1 µM in assay [4]; 30.1 µM in [6]; 21.5 µM in [7]. The TGI was above 100 µM in assay [8], 27.7 µM in assay [9] and 55.3 µM in assay [10].

Regarding `CN1CCN(CC#Cc2cccc(C(=O)c3cnn(-c4ccc(F)cc4)c3N)c2)CC1`, the GI50 in [1], in assay [2], in [3], in assay [4], in assay [5] and in [6] was above 25 µM in each case. For the same molecule, the GI50 in [8] is above 19.3 µM; in assay [9] it was above 25 µM; in assay [10], 24.6 µM. Also, the TGI in assay [1], in assay [2], in [3], in assay [4], in assay [5] and in [6] was above 25 µM in each case. For the same molecule, the TGI in assay [8], in [9] and in assay [10] was above 25 µM throughout.

For the molecule `CCCCCCCCCCCCCC(=S)NCCCC[C@H](NC(=O)OCc1ccccc1)C(=O)Nc1ccccc1`, the GI50 was 4.02 µM in assay [1]; 4.27 µM in assay [2]; 3.87 µM in assay [3]; 21.7 µM in assay [4]; 7.41 µM in assay [5]; 5.3 µM in assay [6]. Besides, the GI50 in assay [8] is 5.25 µM; in assay [9] it was 3.52 µM; in [10], 3.89 µM. Besides, the TGI in [1] is above 100 µM; in [2] it was above 100 µM; in assay [3], 22.5 µM; in assay [4], above 100 µM; in [5], above 100 µM; in assay [6], above 100 µM. In addition, the TGI in assay [8], in [9] and in assay [10] was above 100 µM each time.

As to `CC1(C)N=C(N)N=C(N)N1c1ccc(CCCCc2ccc(S(=O)(=O)F)cc2)cc1`, the GI50 in assay [1] was 0.153 µM; in assay [2], 2.58 µM; in assay [3], 2.28 µM; in assay [4], 15.5 µM; in [5], 12.2 µM; in assay [6], 0.506 µM. Further, the GI50 in [8] is 0.4 µM; in [9] it was 3.88 µM; in [10] it was 0.828 µM. Besides, the TGI is 13.3 µM in [1]; 19.4 µM in [2]; 19.8 µM in [3]; above 85 µM in [4]; 32.4 µM in assay [5]; 17 µM in assay [6]. In addition, the TGI in assay [8] came to 21.3 µM; in [9] it was 16.4 µM; in assay [10] it was 22.1 µM.
